Assay results: patent US10538512B2, “Aminoacylindazole immunomodulators for treatment of autoimmune diseases” (The Rockefeller University, priority 2016, dated 2020)

How the values were obtained:
Human FXIIa = molecular target: T1, Human FXIIa (Homo sapiens, UniProt P00748); assay: Factor XIIa (FXIIa) inhibitory activity, chromogenic substrate assay; format: biochemical; details: Human FXIIa 12.5 nM, Pefachrome XIIa 400 μM, 10 min preincubation
T1 construct: active coagulation factor XII (FXIIa); purchased Enzyme Research Labs
T1 sequence (P00748 373-615 limits assumed): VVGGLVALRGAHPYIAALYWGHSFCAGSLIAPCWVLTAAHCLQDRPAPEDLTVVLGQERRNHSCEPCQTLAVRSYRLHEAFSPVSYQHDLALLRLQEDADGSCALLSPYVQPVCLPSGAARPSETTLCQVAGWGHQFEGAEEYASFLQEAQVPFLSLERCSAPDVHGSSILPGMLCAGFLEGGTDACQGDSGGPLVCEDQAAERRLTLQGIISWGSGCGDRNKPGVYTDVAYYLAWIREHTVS
T1 sequence (P00748 20-372 partner limits assumed): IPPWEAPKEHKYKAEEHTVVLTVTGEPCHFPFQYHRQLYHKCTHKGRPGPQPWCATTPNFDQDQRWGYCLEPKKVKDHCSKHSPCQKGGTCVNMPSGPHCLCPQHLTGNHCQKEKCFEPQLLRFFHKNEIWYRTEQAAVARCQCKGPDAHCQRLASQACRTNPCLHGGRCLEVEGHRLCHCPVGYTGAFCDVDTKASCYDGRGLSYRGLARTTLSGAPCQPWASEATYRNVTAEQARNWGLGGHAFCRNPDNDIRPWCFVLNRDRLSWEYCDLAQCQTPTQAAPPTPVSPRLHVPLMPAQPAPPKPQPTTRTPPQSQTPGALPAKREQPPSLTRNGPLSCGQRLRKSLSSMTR
In short: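 Buffer was 0.5× HBSS with 25 mM HEPES pH 7.4 and 0.5× TBS-Tween 0.05%. Enzyme and compound (about 1–100 μM) were preincubated 10 min at room temperature, then Pefachrome XIIa was added at 400 μM final. Substrate cleavage was followed as the rate of A405 change at 37 °C.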

Human alpha-thrombin = molecular target: T2, Human alpha-thrombin (Homo sapiens, UniProt P00734); assay: Thrombin counterscreen for selectivity, fluorogenic substrate assay; format: biochemical; details: Human alpha-thrombin 12.5 nM, Boc-Val-Pro-Arg-AMC 20 μM, 10 min preincubation
T2 construct: Human alpha-thrombin (Enzyme Research Labs); purchased Enzyme Research Labs
In short: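 Compounds, about 1–100 μM, preincubated 10 min at room temperature with enzyme, then Boc-Val-Pro-Arg-AMC added at 20 μM final.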

IC50 (Human FXIIa)	IC50 (Human alpha-thrombin)	SMILES
250 nM	68 µM	COc1ccc(C(=O)n2nc3c(c2N)CCCC3)c2cc[nH]c12 [Example 80, (3-amino-4,5,6,7-tetrahydroindazol-2-yl)(7-methoxy-1H-indol-4-yl)methanone]
20 nM	9 µM	Cc1cc2c(C(=O)n3nc4c(c3N)CC(F)(F)CC4)cccc2[nH]1 [Example 121, (3-amino-5,5-difluoro-4,5,6,7-tetrahydro-2H-indazol-2-yl)(2-methyl-1H-indol-4-yl)methanone]
400 nM	30 µM	Cc1cc2c(o1)CCCC2C(=O)n1nc2c(c1N)CCCC2 (centres unmarked) [Example 85, (3-amino-4,5,6,7-tetrahydro-2H-indazol-2-yl)(2-methyl-4,5,6,7-tetrahydrobenzofuran-4-yl)methanone]
40 nM	20 µM	Cc1cc2c(C(=O)n3nc4c(c3N)CCCC4)cccc2n1C [Example 22, (3-Amino-4,5,6,7-tetrahydroindazol-2-yl)(1,2-dimethyl-1H-indol-4-yl)methanone]
> 100000 nM	> 100 µM	Cc1sc2ccccc2c1C(=O)n1nc(N)c2c1CCCC2 (single isomer, unassigned) [Example 24, (3-amino-4,5,6,7-tetrahydroindazol-1-yl)(2-methylbenzo[b]thiophen-3-yl)methanone]
40 nM	> 80 µM	Nc1c2c(nn1C(=O)[C@H]1CCNc3ccc(Cl)cc31)CC[C@@H](O)C2 (single isomer, unassigned) [Example 148, ((5R*)-3-amino-5-hydroxy-4,5,6,7-tetrahydroindazol-2-yl)((4S*)-6-chloro-1,2,3,4-tetrahydroquinolin-4-yl)methanone]
30000 nM	> 65 µM	Nc1c2c(nn1C(=O)[C@@H]1CCCc3[nH]c(Cl)cc31)CC[C@H](O)C2 (single isomer, unassigned) [Example 128, ((5S*)-3-amino-5-hydroxy-4,5,6,7-tetrahydroindazol-2-yl)((4R*)-2-chloro-4,5,6,7-tetrahydro-1H-indol-4-yl)methanone]

More lines, now with the values behind:

SMILES	IC50 (Human FXIIa)	IC50 (Human alpha-thrombin)
Nc1nn(C(=O)C2CCNc3ccccc32)c2ccccc12 (centres unmarked) [Example 77, (3-amino-1H-indazol-1-yl)(1,2,3,4-tetrahydroquinolin-4-yl)methanone]	> 100000 nM	> 100 µM
CCC(C)n1ccc2c(C(=O)n3nc4c(c3N)CCCC4)cccc21 (centres unmarked) [Example 37, (3-amino-4,5,6,7-tetrahydroindazol-2-yl)(1-sec-butyl-1H-indol-4-yl)methanone]	2500 nM	> 75 µM
CC(C)c1cc2c(C(=O)n3nc4c(c3N)CCCC4)cccc2[nH]1 (single isomer, unassigned) [Example 51, (3-amino-4,5,6,7-tetrahydroindazol-2-yl)(2-isopropyl-1H-indol-4-yl)methanone]	400 nM	> 50 µM
Cn1ccc2c(C(=O)n3nc4c(c3N)CCCC4)cccc21 (single isomer, unassigned) [Example 7, (3-Amino-4,5,6,7-tetrahydroindazol-2-yl)(1-methyl-1H-indol-4-yl)methanone]	150 nM	30 µM
CN1CCC(C(=O)n2nc3c(c2N)CCCC3)c2ccccc21 (single isomer, unassigned) [Example 73, (R*)-(3-amino-4,5,6,7-tetrahydroindazol-2-yl)(1-methyl-1,2,3,4-tetrahydroquinolin-4-yl)methanone]	> 50000 nM	> 50 µM
Nc1nn(C(=O)[C@@H]2CCNc3ccccc32)c2c1C[C@@H](O)CC2 (single isomer, unassigned) [Example 172, ((5S*)-3-amino-5-hydroxy-4,5,6,7-tetrahydroindazol-1-yl)((4R*)-1,2,3,4-tetrahydroquinolin-4-yl)methanone]	> 100000 nM	> 100 µM
COC1CCc2c(c(N)nn2C(=O)c2cccc3[nH]c(C)cc23)C1 (centres unmarked) [Example 120, (3-amino-5-methoxy-4,5,6,7-tetrahydro-2H-indazol-1-yl)(2-methyl-1H-indol-4-yl)methanone]	10000 nM	> 80 µM
Cc1c2c(nn1C(=O)c1cccc3[nH]ccc13)CCCC2 (single isomer, unassigned) [Example 3, (1H-Indol-4-yl)(3-methyl-4,5,6,7-tetrahydroindazol-2-yl)methanone]	5000 nM	33 µM
CCn1cc(C(=O)n2nc3c(c2N)CCCC3)c2ccccc21 [Example 43, (3-amino-4,5,6,7-tetrahydroindazol-2-yl)(1-ethyl-1H-indol-3-yl)methanone]	7500 nM	> 100 µM
Cc1cc2c(n1S(C)(=O)=O)CCCC2C(=O)n1nc2c(c1N)CCCC2 (centres unmarked) [Example 90, (3-amino-4,5,6,7-tetrahydroindazol-2-yl)(2-methyl-1-(methylsulfonyl)-4,5,6,7-tetrahydro-1H-indol-4-yl)methanone]	300 nM	18 µM
C=Cc1cc2c(C(=O)n3nc4c(c3N)CCCC4)cccc2[nH]1 (single isomer, unassigned) [Example 70, (3-amino-4,5,6,7-tetrahydroindazol-2-yl)(2-vinyl-1H-indol-4-yl)methanone]	20 nM	13 µM
Cc1cccc2c1NCC[C@@H]2C(=O)n1nc2c(c1N)C[C@H](O)CC2 (single isomer, unassigned) [Example 218, ((5R*)-3-amino-5-hydroxy-4,5,6,7-tetrahydro-2H-indazol-2-yl)((4S*)-8-methyl-1,2,3,4-tetrahydroquinolin-4-yl)methanone]	50 nM	> 90 µM
Cc1cc2c(C(=O)n3nc(N)c4c3CCCC4)cccc2o1 (single isomer, unassigned) [Example 59, (3-amino-4,5,6,7-tetrahydroindazol-1-yl)(2-methylbenzofuran-4-yl)methanone]	> 100000 nM	> 100 µM
Nc1c2c(nn1C(=O)[C@H]1CCCc3[nH]c(Cl)cc31)CC[C@@H](O)C2 (single isomer, unassigned) [Example 125]	1400 nM	> 100 µM
CCn1c(C)c(C(=O)n2nc3c(c2N)CCCC3)c2ccccc21 [Example 45, (3-amino-4,5,6,7-tetrahydroindazol-2-yl)(1-ethyl-2-methyl-1H-indol-3-yl)methanone]	12000 nM	> 100 µM
